Test results published in US20250353873A1, “COMPOUNDS AND METHODS FOR MODULATING APOE EXPRESSION” (Ionis Pharmaceuticals, Inc., priority 2024, published 2025).
Where two headings read alike, the source gives them in different places. Strand notation (5' to 3'): a small letter for the sugar, then the base; units joined by * are phosphorothioate-linked, units joined directly phosphodiester-linked; [ ] holds rarer units or linkages, { } end groups; capitals alone tell only the bases. [ms] = mesyl phosphoramidate linkage; e = 2'-O-(2-methoxyethyl) (MOE); k = constrained ethyl (cEt); [5mC] = 5-methylcytosine; d = 2'-deoxy (DNA)

Tests used:
[1] = test system: human APOE RNA; test: Duration of action study in APOE C57BL/6NTac-Apoeem7250 knock-in mice (Example 16); format: in vivo; details: 300 μg ICV
Procedure, shortened: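 Knock-in mice (2-4 per group) received a single ICV bolus of 300 μg oligonucleotide or PBS. At various timepoints, cortex and spinal cord human APOE RNA was measured by RT-qPCR (RTS3073), normalized to mouse Ppia and expressed as % of PBS control.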

[2] = test system: BJAB cells; test: Evaluation of proinflammatory effects in BJAB assay, CCL22 RNA (Example 17); details: for inflammatory response in human BJAB cells: 24-hour culturing period, assay of Example 17; for LOG10 CCL22 relative to UTC / Immunostimulatory Properties: BJAB cells, 1.6 μM, 24 hours; for LOG10 CCL22 relative to UTC: CCL22 RNA normalized to GAPDH; for Immunostimulatory Properties: assigned relative to internal control compounds of each assay
Procedure: (§1) Human APOE modified oligonucleotides were tested for potential immunostimulatory properties in an in vitro human BJAB activation assay.
(§2) Human Burkitt lymphoma B cells, BJAB cells (DSMZ, Cat #ACC 757) were cultured in RPMI1640 medium containing 20% fetal bovine serum at 37° C. and 5% CO2. Cells were maintained at a density of 0.5-0.7×10^6 cells per milliliter. Cells were transferred to 50 mL conical Falcon tubes and centrifuged at 330 RCF for 5 minutes before being resuspended at a concentration of 7.5×10^4 cells per milliliter in RPMI culture medium containing penicillin and streptomycin. 50 μL of the cell suspension was added to a v-bottom tissue culture treated 96-well microplate. 11 μl of 10× concentrated modified oligonucleotides was then added to the plate for a final concentration of 1.6 μM and incubated for 24 hours at 37° C. and 5% CO2.
(§3) After a treatment period of 24 hours, total RNA was isolated from the cells and CCL22 RNA levels were measured by quantitative real-time RT-PCR. CCL22 RNA levels were measured by human primer-probe set RTS49260 (forward sequence [sequence], designated herein as SEQ ID NO: 19; reverse sequence [sequence], designated herein as SEQ ID NO: 20; probe sequence [sequence], designated herein as SEQ ID NO: 21). CCL22 RNA levels were normalized to total RNA content, as measured by GAPDH. Human GAPDH was measured using the human primer-probe set RTS104 (forward sequence [sequence], designated herein as SEQ ID NO: 10; reverse sequence [sequence], designated herein as SEQ ID NO: 11; probe sequence [sequence], designated herein as SEQ ID NO: 12). Levels of CCL22 RNA is presented log fold increase of CCL22, relative to untreated control cells (UTC). The assignment of the immunostimulatory properties of the test compounds is based on the immunostimulatory properties of the internal control compounds in each assay.

[3] = test system: BJAB cells
Procedure: as §1, §2, §3

[4] = test system: human APOE RNA; test: Activity in APOE 1549 knock-in mice, single ICV bolus, 4 weeks (Example 8); format: in vivo; details: n = 6, single ICV bolus 300 μg, 4 weeks
Procedure: Modified oligonucleotides described above were tested in the 1549 APOE knock-in mouse model described above.
APOE knock-in mice were divided into groups of either 2 or 6 mice each as described in the tables below. Each mouse received a single intracerebroventricular (ICV) bolus of 300 μg of modified oligonucleotide. A group of either 3 or 6 mice received a single ICV bolus with PBS as a negative control.
Four weeks post treatment, mice were sacrificed and RNA was extracted from cortical brain tissue and spinal cord for quantitative real-time RT-PCR analysis of RNA expression of APOE using primer probe set RTS3073 (described herein above). APOE RNA levels were normalized to mouse Ppia. Mouse Ppia was amplified using primer probe set m_cyclo24 (described herein above). Results are presented as percent human APOE RNA relative to the amount of human APOE RNA in PBS treated animals, (% control). Each experiment is identified in separate tables below.

[5] = test system: human APOE RNA; test: Activity in APOE 1549 knock-in mice, single ICV bolus, 2 weeks (Example 7); format: in vivo; details: single ICV bolus of 300 μg, two weeks post treatment, Table 17
Procedure, shortened: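 Human APOE knock-in mice (model 41549), 2 per group, given a single 300 µg ICV bolus of oligonucleotide, with PBS as control. After 2 weeks, APOE RNA in cortex and spinal cord measured by RT-qPCR, normalized to mouse Ppia, and expressed as % of PBS control.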

[6] = test system: human APOE RNA; test: Activity in APOE C57BL/6NTac-Apoeem7250 knock-in mice, single ICV bolus, 2 weeks (Example 9); format: in vivo; details: single ICV bolus 300 μg
Procedure: Modified oligonucleotides described above were tested in the APOE knock-in mouse model C57BL/6NTac-Apoeem7250_B-A02(APOE)Tac, a heterozygous APOE mouse model. APOE knock-in mice used in this study express the full-length human APOE gene knocked into the mouse locus. Humanization of APOE gene was done via CRISPR/Cas-9-mediated gene editing, allowing for generation of a model with constitutive expression of human APOE gene. Targeting strategy was based on NCBI transcripts NM_009696.4 (mouse) and NM_000041.4 (human). Mouse genomic sequence from exon 1 to exon 4 (including the 5′ and 3′ UTRs) was replaced with the human counterpart from 141 bp upstream of exon 1 to 28 bp downstream of exon 4. A plasmid allowing expression of Cas9 mRNA, specific gRNA, and the puromycin resistance cassette, and a plasmid containing the homology regions of the mouse APOE gene, and the replaced human region were co-transfected into the Taconic Biosciences C57BL/6N Tac ES cell line. Homologous recombination clones were isolated using positive puromycin selection, and humanized allele was obtained after Cas9-mediated gene editing. C57BL/6NTac-Apoeem7250_B-A02(APOE)Tac mice were used in the in vivo experiments described below.
APOE C57BL/6NTac-Apoeem7250 knock-in mice were divided into groups of 3 mice each. Each mouse received a single ICV bolus of 300 μg of modified oligonucleotide. A group of 3 mice received a single ICV bolus with PBS as a negative control.
Two weeks post treatment, mice were sacrificed and RNA was extracted from cortical brain tissue and spinal cord for quantitative real-time RT-PCR analysis of RNA expression of APOE using human primer probe set RTS3073 (described herein above). APOE RNA levels were normalized to mouse Ppia. Mouse Ppia was amplified using primer probe set m_cyclo24 (described herein above). Results are presented as percent human APOE RNA relative to the amount of human APOE RNA in PBS treated animals, (% control).

Row | Substance | APOE RNA (% control) Cortex ([1]; 7 days post-dose) | APOE RNA (% control) Cortex ([1]; 14 days post-dose) | APOE RNA (% control) Spinal Cord ([1]; 7 days post-dose) | APOE RNA (% control) Spinal Cord ([1]; 14 days post-dose) | inflammatory response in human BJAB cells [2] | LOG10 CCL22 relative to UTC [2] | Immunostimulatory Properties [2] | inflammatory response in human BJAB cells [3] | other results
1 | ^mCksTksTksGdzGdzTdzGdzAdzAdzTds^mCdsTdsTdsTdsAdsTdsTksAksAdzAk (antisense k[5mC]*kT*kT*dG[ms]dG[ms]dT[ms]dG[ms]dA[ms]dA[ms]dT*d[5mC]*dT*dT*dT*dA*dT*kT*kA*dA[ms]kA) [Compound No. 1785602] | 40 % control | 30 % control | 56 % control | 28 % control | did not induce any inflammatory response | 0.34 | Non-Inflammatory | – | –
2 | 1746809 (k[5mC]*dT[ms]kT*dG[ms]kG*dT[ms]dG[ms]dA[ms]dA[ms]dT*d[5mC]*dT*dT*dT*dA[ms]dT*dT[ms]kA*kA*kA; antisense) [Compound 1746809] | – | – | – | – | – | – | – | – | APOE RNA (% control) Cortex ([1]; 112 days post-dose): 55 % control; APOE RNA (% control) Cortex ([1]; 140 days post-dose): 66 % control; APOE RNA (% control) Spinal Cord ([1]; 112 days post-dose): 86 % control; APOE RNA (% control) Spinal Cord ([1]; 140 days post-dose): 107 % control
3 | Aks^mCeoTeoTesGesGksTdsGdzAdzAdzTds^mCdsTdsTdsTdsAdzTksTksAesAe (kA*e[5mC]eTeT*eG*kG*dT*dG[ms]dA[ms]dA[ms]dT*d[5mC]*dT*dT*dT*dA[ms]kT*kT*eA*eA) [Compound No. 1809635] | 40 % control | 30 % control | 44 % control | 27 % control | – | – | – | did not induce any inflammatory response | –
4 | Aes^mCeoTeoTesGesGksTdsGdzAdzAdzTds^mCdsTdsTdsTdsAdzTksTksAesAe (eA*e[5mC]eTeT*eG*kG*dT*dG[ms]dA[ms]dA[ms]dT*d[5mC]*dT*dT*dT*dA[ms]kT*kT*eA*eA) [Compound No. 1757576] | 45 % control | 32 % control | 42 % control | 25 % control | – | – | – | did not induce any inflammatory response | APOE RNA (% control) Cortex ([4]; Cortex): 26 % control; APOE RNA (% control) Spinal Cord ([4]; Spinal Cord): 17 % control
5 | 1693105: 6-10-4 MOE gapmer CTTGGTGAATCTTTATTAAA, linkages sosssszzzssssszssss (e[5mC]*eTeT*eG*eG*eT*dG[ms]dA[ms]dA[ms]dT*d[5mC]*dT*dT*dT*dA[ms]dT*eT*eA*eA*eA) [compound 1693105] | – | – | – | – | – | – | – | – | APOE RNA (% control) Cortex ([5]; cortex): 51 % control; APOE RNA (% control) Spinal Cord ([5]; spinal cord): 38 % control; APOE RNA (% control) Cortex ([6]; Cortex): 65 % control; APOE RNA (% control) Spinal Cord ([6]; Spinal Cord): 54 % control
6 | TezTeoGeoGksTdsGdzAdzAdzTds^mCdsTdsTdsTdsAdzTksTksAesAesAes^mCe (antisense eT[ms]eTeGkG*dT*dG[ms]dA[ms]dA[ms]dT*d[5mC]*dT*dT*dT*dA[ms]kT*kT*eA*eA*eA*e[5mC]) [Compound No. 1809814] | 62 % control | 57 % control | 84 % control | 53 % control | did not induce any inflammatory response | 0.07 | Non-Inflammatory | – | –
